Data published in patent US11447466B2, “Substituted indole compounds useful as inhibitors of TLR7/8/9” (BRISTOL-MYERS SQUIBB COMPANY, priority 2017, dated 2022).
pIC50: −log10 of the molar value.

Key:
Assay type in all cases: cell-based
human TLR7 = target: T1, human TLR7 (Homo sapiens, UniProt Q9NYK1); experiment: TLR7 inhibition reporter assay (HEK-Blue SEAP reporter, gardiquimod stimulation); conditions: HEK-Blue cells overexpressing human TLR7, SEAP reporter, gardiquimod 7.5 μM, 22 hour incubation
T1 construct: host or cells: HEK-Blue cells
T1 sequence (Q9NYK1 27-1049): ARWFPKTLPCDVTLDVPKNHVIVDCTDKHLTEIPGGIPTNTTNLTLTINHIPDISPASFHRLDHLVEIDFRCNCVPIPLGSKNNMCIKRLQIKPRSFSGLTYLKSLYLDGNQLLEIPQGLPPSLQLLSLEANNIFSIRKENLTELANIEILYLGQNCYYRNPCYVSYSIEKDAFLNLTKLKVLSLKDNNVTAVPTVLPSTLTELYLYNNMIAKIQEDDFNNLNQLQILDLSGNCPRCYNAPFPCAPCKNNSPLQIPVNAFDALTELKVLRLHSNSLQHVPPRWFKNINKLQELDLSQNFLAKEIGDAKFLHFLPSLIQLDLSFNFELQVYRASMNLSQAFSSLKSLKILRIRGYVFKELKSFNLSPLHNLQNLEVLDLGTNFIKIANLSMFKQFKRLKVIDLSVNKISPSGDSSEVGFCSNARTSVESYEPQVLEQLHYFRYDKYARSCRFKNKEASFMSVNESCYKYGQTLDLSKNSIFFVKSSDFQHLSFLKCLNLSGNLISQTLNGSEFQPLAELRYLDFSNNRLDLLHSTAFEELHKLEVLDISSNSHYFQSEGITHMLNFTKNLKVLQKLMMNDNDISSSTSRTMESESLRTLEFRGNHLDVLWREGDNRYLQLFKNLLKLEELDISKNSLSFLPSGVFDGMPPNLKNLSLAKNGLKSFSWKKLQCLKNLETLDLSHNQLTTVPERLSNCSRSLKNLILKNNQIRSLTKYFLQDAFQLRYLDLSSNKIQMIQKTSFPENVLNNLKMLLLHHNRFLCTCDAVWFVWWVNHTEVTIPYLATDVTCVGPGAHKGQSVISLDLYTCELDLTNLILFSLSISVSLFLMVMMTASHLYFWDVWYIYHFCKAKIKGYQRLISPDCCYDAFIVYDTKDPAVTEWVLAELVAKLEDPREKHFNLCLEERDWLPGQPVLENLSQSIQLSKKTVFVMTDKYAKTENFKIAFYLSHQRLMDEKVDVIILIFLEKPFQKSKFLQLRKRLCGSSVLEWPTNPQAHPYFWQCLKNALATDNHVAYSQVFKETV
Outline: (§1)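 Agonists used: gardiquimod 7.5 μM (TLR7), R848 15.9 μM (TLR8), ODN2006 5 nM (TLR9), added after 30 min room-temperature compound pre-treatment (0.05 nM–50 μM) of receptor-overexpressing HEK-Blue cells. SEAP reporter (NF-κB/AP-1 driven) read after 22 h at 37 °C; inhibition scaled between agonist+DMSO and reference-inhibitor wells.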

human TLR8 = target: T2, human TLR8 (Homo sapiens, UniProt Q9NR97); experiment: TLR8 inhibition reporter assay (HEK-Blue SEAP reporter, R848 stimulation); conditions: HEK-Blue cells overexpressing human TLR8, SEAP reporter, R848 15.9 μM, 22 hour incubation
T2 construct: host or cells: HEK-Blue cells
T2 sequence (Q9NR97 27-1041): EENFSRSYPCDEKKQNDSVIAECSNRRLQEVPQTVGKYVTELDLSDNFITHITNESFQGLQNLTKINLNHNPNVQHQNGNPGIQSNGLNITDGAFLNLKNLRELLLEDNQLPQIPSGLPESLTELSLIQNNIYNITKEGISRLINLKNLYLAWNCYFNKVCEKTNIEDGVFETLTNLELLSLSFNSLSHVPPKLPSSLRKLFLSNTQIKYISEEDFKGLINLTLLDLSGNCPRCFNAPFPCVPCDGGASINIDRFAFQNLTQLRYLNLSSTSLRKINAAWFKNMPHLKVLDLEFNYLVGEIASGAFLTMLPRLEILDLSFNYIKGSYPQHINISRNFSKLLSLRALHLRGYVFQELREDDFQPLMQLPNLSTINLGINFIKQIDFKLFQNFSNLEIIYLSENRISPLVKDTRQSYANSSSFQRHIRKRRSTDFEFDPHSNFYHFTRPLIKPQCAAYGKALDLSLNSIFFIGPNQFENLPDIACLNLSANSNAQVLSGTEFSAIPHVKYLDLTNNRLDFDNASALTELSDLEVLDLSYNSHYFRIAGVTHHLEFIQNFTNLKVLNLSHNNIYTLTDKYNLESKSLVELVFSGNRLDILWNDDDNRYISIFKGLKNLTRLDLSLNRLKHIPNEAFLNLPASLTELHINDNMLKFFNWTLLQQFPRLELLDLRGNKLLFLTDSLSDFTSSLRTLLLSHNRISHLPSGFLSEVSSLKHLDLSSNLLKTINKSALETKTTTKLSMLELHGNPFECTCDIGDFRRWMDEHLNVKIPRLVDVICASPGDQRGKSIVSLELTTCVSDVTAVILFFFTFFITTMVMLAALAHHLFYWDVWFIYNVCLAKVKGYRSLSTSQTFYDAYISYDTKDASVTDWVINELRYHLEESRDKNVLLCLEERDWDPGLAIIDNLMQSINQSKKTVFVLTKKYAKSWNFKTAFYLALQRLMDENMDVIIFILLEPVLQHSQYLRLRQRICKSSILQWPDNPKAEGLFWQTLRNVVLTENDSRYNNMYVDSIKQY
Outline: as §1

human TLR9 = target: T3, human TLR9 (Homo sapiens, UniProt Q9NR96); experiment: TLR9 inhibition reporter assay (HEK-Blue SEAP reporter, ODN2006 stimulation); conditions: HEK-Blue cells overexpressing human TLR9, SEAP reporter, ODN2006 5 nM, 22 hour incubation
T3 construct: host or cells: HEK-Blue cells
T3 sequence (Q9NR96 26-1032): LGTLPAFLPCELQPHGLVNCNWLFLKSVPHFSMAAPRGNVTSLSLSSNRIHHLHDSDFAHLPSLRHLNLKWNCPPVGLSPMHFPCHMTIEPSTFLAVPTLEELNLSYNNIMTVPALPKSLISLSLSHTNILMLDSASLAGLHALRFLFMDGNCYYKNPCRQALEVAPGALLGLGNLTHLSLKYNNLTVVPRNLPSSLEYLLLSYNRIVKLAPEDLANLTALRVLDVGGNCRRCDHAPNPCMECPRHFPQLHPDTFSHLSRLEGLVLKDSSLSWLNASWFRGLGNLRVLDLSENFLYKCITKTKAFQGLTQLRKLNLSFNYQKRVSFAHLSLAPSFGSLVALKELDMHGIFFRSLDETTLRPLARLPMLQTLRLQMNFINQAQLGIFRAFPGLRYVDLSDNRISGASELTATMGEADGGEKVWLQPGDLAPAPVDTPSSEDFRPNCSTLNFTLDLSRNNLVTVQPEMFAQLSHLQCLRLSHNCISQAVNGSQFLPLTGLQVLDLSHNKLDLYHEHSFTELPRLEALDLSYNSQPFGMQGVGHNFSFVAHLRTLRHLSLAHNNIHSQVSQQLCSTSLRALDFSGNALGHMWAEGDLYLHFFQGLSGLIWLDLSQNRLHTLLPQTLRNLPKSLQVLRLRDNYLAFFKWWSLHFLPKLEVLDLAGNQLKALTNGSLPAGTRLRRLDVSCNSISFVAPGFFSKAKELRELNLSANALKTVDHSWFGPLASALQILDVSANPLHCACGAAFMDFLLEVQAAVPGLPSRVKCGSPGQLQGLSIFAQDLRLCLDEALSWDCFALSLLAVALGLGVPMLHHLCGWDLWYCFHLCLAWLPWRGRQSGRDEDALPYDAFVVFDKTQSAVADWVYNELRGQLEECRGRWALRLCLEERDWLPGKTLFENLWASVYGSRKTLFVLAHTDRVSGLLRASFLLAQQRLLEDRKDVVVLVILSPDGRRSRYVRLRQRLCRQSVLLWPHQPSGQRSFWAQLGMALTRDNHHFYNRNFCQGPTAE
Outline: as §1

SMILES	pIC50 (human TLR7)	pIC50 (human TLR8)	pIC50 (human TLR9)
CCn1cc(-c2[nH]c3ccc(C4CCNCC4)cc3c2C(C)C)c(C)c(C)c1=O [Example 26, 1-ethyl-5-(3-isopropyl-5-(piperidin-4-yl)-1H-indol-2-yl)-3,4-dimethylpyridin-2(1H)-one]	7.92	8.05	5.73
COc1cc(-c2[nH]c3ccc(C4CCNCC4)cc3c2C(C)C)c(C)n(C)c1=O [Example 28, 5-(3-isopropyl-5-(piperidin-4-yl)-1H-indol-2-yl)-3-methoxy-1,6-dimethylpyridin-2(1H)-one]	6.68	6.76	5.92
COc1c(C)c(-c2[nH]c3ccc(C4CCNCC4)cc3c2C(C)C)cn(C)c1=O [Example 29, 5-(3-isopropyl-5-(piperidin-4-yl)-1H-indol-2-yl)-3-methoxy-1,4-dimethylpyridin-2(1H)-one]	7.85	7.29	6.11
Cc1c(-c2[nH]c3ccc(C4CCNCC4)cc3c2C(C)C)cc(Cl)c(=O)n1C [Example 33, 3-chloro-5-(3-isopropyl-5-(piperidin-4-yl)-1H-indol-2-yl)-1,6-dimethylpyridin-2(1H)-one]	7.79	7.90	6.04
CCc1cc(-c2[nH]c3ccc(C4CCNCC4)cc3c2C(C)C)c(C)n(CC)c1=O [Example 35, 1,3-diethyl-5-(3-isopropyl-5-(piperidin-4-yl)-1H-indol-2-yl)-6-methylpyridin-2(1H)-one]	7.22	8.17	6.24
Cc1cc(-c2[nH]c3ccc(C4CCNCC4)cc3c2C(C)C)cn(CC(C)C)c1=O [Example 36, 1-isobutyl-5-(3-isopropyl-5-(piperidin-4-yl)-1H-indol-2-yl)-3-methylpyridin-2(1H)-one]	8.02	7.09	5.88
COC(=O)c1cc(-c2[nH]c3ccc(C4CCNCC4)cc3c2C(C)C)cn(C)c1=O [Example 37, methyl 5-(3-isopropyl-5-(piperidin-4-yl)-1H-indol-2-yl)-1-methyl-2-oxo-1,2-dihydropyridine-3-carboxylate]	6.34	6.74	5.61
Cc1cc(-c2[nH]c3ccc(C4CCNCC4)cc3c2C(C)C)cn(CCCO)c1=O [Example 38, 1-(3-hydroxypropyl)-5-(3-isopropyl-5-(piperidin-4-yl)-1H-indol-2-yl)-3-methylpyridin-2(1H)-one]	7.29	7.52	5.52
CC(C)c1c(-c2cc(C(F)(F)F)c(=O)n(C)c2)[nH]c2ccc(C3CCNCC3)cc12 [Example 41, 5-(3-isopropyl-5-(piperidin-4-yl)-1H-indol-2-yl)-1-methyl-3-(trifluoromethyl)pyridin-2(1H)-one]	7.74	6.80	5.95
Cc1cc(-c2[nH]c3ccc(C4CCNCC4)cc3c2C(C)C)cn(C2CCOC2)c1=O (stereo not drawn) [Example 42, 5-(3-isopropyl-5-(piperidin-4-yl)-1H-indol-2-yl)-3-methyl-1-(tetrahydrofuran-3-yl)pyridin-2(1H)-one]	7.39	6.87	5.17

These reach a higher pIC50 (human TLR7). Values come first.

pIC50 (human TLR7)	pIC50 (human TLR8)	pIC50 (human TLR9)	SMILES
8.08	8.00	5.62	Cc1cc(-c2[nH]c3ccc(C4CCNCC4)cc3c2C(C)C)cn(CCO)c1=O [Example 30, 1-(2-hydroxyethyl)-5-(3-isopropyl-5-(piperidin-4-yl)-1H-indol-2-yl)-3-methylpyridin-2(1H)-one]
8.10	8.10	5.50	COCCn1cc(-c2[nH]c3ccc(C4CCNCC4)cc3c2C(C)C)cc(C)c1=O [Example 39, 5-(3-isopropyl-5-(piperidin-4-yl)-1H-indol-2-yl)-1-(2-methoxyethyl)-3-methylpyridin-2(1H)-one]
8.15	7.32	5.83	Cc1cc(-c2[nH]c3ccc(C4CCNCC4)cc3c2C(C)C)cn(CC2CC2)c1=O [Example 34, 1-(cyclopropylmethyl)-5-(3-isopropyl-5-(piperidin-4-yl)-1H-indol-2-yl)-3-methylpyridin-2(1H)-one]
8.28	7.77	5.35	Cc1cc(-c2[nH]c3ccc(C4CCNCC4)cc3c2C(C)C)cn(CC(F)F)c1=O [Example 40, 1-(2,2-difluoroethyl)-5-(3-isopropyl-5-(piperidin-4-yl)-1H-indol-2-yl)-3-methylpyridin-2(1H)-one]
8.74	7.76	5.97	CCn1cc(-c2[nH]c3ccc(C4CCNCC4)cc3c2C(C)C)cc(Cl)c1=O [Example 32, 3-chloro-1-ethyl-5-(3-isopropyl-5-(piperidin-4-yl)-1H-indol-2-yl) pyridin-2(1H)-one]
9.00	8.15	5.95	Cc1c(-c2[nH]c3ccc(C4CCNCC4)cc3c2C(C)C)cn(C)c(=O)c1Cl [Example 31, 3-chloro-5-(3-isopropyl-5-(piperidin-4-yl)-1H-indol-2-yl)-1,4-dimethylpyridin-2(1H)-one]
